Source: patent US20240261224A1, “FORMULATION OF A PAN-JAK INHIBITOR” (KINASET THERAPEUTICS, INC., priority 2022, published 2024)
Like-named read-outs stand apart in the source and are kept apart here.

Experiments:
[1] = tested on: fractional exhaled nitric oxide (FeNO); assay: Phase 1 Part 2: FeNO reduction in ICS-naïve mild asthmatics; type: in vivo, human; conditions: for Mean placebo-corrected FeNO reduction: mild asthma ICS naïve
Experimental: (§1) A status summary of the phase 1 clinical trial recruitment is shown below in Table 18. Capsules filled with blend 2a were used to achieve a 0.6 mg target dose of Compound I (0.2 mg capsules×3). Capsules filled with blend 4 were used to achieve 2.0 mg, 4.0 mg, 6.0 mg, 8.0 mg, and 12.0 mg target doses of Compound I (2.0 mg capsule×1; 4.0 mg capsule×1; 2.0 mg capsules×3; 4.0 mg capsules×2; and 4.0 mg capsules×3, respectively). Twice daily dosing (BID) was achieved by repeating the preceding regime. For example, an 8.0 mg BID dosing regime is achieved by administering two doses of 4.0 mg capsules×2.
Particular FeNO reduction data from FIG. 5 is highlighted below in Table 19. For comparison, it is established that FeNO reductions greater than 20% are clinically significant (Am. J. Respir. Crit. Care Med. 2011, 184, 602).
Day 10 pharmacokinetic parameters for Parts 2 and 3 of Phase I are summarized below in Table 28. Part 2 involved the administration of 4 different dose regimens, to subjects with mild asthma naïve to ICS therapy, over a 10-day period. Each separate cohort comprised 6 subjects receiving active treatment with 2 receiving matching placebo. Blood samples were collected to enable the measurement of Compound I concentrations in plasma. The resultant data was used to determine the PK parameters at Day 10 representing the Day on which the final dose was received.

[2] = target: JAK1 (Homo sapiens, UniProt P23458); conditions: cited from earlier work
[3] = Phase 1 clinical trial adverse events summary (Part 1 healthy volunteers); type: in vivo, human; conditions: for Severe/serious TEAE, n (%) / Subjects with TEAE n, (%) / TEAE leading to discontinuation: Part 1 healthy volunteers
Experimental: as §1

[4] = target: JAK2 (Homo sapiens, UniProt O60674); conditions: cited from earlier work
[5] = Phase 1 Part 3 plasma pharmacokinetics (moderate to severe asthma); type: in vivo, human; conditions: 4 mg BID; for AUC(0-t) / AUC(0-inf) / AUC / Cmax: human, plasma, inhaled, 4 mg
Experimental: Part 3 involved the administration of a single dose regimen (4 mg BID), to subjects (17 active:6 placebo) with moderate to severe asthma treated with background ISC/LABA therapy, over a 10-day period. Blood samples were collected to enable the measurement of KN-002 concentrations in plasma. The resultant data was used to determine the pharmacokinetic parameters at Day 10 representing the Day on which the final dose was received.

Sequence of JAK2 (O60674 whole entry): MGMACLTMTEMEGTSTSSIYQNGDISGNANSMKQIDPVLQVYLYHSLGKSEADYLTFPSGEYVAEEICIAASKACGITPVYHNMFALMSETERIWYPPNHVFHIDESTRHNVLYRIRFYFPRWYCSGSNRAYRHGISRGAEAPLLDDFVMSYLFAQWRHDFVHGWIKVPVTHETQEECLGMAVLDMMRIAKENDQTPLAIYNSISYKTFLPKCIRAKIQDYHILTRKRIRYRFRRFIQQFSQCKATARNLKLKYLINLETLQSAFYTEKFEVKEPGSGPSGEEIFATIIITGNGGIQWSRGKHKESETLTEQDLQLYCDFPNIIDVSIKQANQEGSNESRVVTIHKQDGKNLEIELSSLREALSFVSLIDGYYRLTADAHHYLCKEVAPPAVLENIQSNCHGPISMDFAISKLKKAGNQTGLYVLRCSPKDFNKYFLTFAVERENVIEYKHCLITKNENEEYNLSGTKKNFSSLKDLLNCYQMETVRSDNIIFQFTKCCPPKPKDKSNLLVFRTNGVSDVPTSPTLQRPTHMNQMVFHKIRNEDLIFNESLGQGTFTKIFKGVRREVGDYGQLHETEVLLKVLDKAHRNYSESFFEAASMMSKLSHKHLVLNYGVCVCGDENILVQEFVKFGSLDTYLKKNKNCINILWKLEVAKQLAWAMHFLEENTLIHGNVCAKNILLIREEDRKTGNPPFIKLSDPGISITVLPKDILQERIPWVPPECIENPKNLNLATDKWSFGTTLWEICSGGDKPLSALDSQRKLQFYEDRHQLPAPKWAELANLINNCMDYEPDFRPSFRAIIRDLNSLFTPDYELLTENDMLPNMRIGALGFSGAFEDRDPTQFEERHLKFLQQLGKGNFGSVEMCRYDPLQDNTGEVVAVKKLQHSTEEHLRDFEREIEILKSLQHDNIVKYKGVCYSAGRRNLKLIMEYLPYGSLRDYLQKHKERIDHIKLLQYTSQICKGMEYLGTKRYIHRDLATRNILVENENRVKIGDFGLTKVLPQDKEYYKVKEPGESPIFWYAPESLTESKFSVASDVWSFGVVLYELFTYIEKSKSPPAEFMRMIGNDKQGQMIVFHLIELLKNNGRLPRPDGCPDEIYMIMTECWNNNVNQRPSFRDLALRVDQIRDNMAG
Sequence of JAK1 (P23458 whole entry): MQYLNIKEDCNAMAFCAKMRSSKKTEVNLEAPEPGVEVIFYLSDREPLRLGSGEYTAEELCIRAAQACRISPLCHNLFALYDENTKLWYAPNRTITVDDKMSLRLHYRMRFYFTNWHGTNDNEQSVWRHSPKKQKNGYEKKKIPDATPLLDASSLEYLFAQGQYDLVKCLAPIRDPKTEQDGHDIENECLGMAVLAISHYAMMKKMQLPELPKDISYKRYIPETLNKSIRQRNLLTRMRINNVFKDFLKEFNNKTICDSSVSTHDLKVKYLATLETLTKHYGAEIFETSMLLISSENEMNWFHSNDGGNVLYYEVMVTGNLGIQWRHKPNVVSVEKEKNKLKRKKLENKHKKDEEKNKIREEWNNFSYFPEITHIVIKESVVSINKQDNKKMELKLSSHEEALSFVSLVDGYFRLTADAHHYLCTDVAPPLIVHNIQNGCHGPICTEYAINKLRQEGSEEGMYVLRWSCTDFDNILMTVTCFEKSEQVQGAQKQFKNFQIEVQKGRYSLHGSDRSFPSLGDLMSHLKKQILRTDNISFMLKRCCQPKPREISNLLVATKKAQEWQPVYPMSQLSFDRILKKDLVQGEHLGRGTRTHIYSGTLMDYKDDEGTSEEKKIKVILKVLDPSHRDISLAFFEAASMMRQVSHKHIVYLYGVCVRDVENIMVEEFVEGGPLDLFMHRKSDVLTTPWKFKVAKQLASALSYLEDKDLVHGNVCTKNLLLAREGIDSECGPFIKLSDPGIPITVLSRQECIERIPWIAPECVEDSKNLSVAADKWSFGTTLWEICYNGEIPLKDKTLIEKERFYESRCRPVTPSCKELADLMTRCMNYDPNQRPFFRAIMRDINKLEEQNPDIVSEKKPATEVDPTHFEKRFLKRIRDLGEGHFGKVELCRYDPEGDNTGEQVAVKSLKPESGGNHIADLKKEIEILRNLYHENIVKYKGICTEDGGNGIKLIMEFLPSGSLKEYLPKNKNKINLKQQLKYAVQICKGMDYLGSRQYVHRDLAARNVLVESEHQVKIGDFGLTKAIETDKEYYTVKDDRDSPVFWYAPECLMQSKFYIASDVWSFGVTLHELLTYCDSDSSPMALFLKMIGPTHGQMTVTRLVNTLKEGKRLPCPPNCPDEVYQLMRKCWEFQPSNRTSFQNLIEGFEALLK

In the case of Cn1c(=O)n([C@H]2CCCN(C(=O)CC#N)C2)c2nc(-c3cnn4ccccc34)ccc21 [Compound I, (S)-3-(3-(1-methyl-2-oxo-5-(pyrazolo[1,5-a]pyridine-3-yl)-1H-imidazo[4,5-b]pyridine-3(2H)-yl)piperidin-1-yl)-3-oxopropanenitrile], the “Pharmacological activity of dose regimen (FeNO)” value ([1]; 0.6 mg QD) was “minimally active dose”, the “% subjects reporting Day 10 FeNO value <25 ppb” value ([1]; 0.6 mg QD (n = 6)) was 16% and the “Mean placebo-corrected % FeNO reduction from day 1 pre-dose in ICS naïve mild asthmatics” value ([1]; 0.6 mg QD (n = 6), Day 10 + 3 hrs) was −5.4%. The “Mean placebo-corrected % FeNO reduction from day 1 pre-dose in ICS naïve mild asthmatics” value ([1]; 0.6 mg QD (n = 6), Day 10 + 6 hrs) was −6.7%, the “Mean placebo-corrected FeNO reduction” value ([1]; 0.6 mg QD, 3 capsules per dose) was −7% and the “Mean placebo-corrected FeNO changes” value ([1]; 0.6 mg QD, Day 1 pre-dose to Day 10) was less than 20%. The “% subjects reporting Day 10 FeNO value <25 ppb” value ([1]; 2.0 mg QD (n = 6)) was 16%, the “Mean placebo-corrected % FeNO reduction from day 1 pre-dose in ICS naïve mild asthmatics” value ([1]; 2.0 mg QD (n = 6), Day 10 + 3 hrs) was −26.6% and the “Mean placebo-corrected % FeNO reduction from day 1 pre-dose in ICS naïve mild asthmatics” value ([1]; 2.0 mg QD (n = 6), Day 10 + 6 hrs) was −24.0%. For the same compound, the “Mean placebo-corrected FeNO reduction” value ([1]; 2.0 mg QD, 1 capsule per dose) was −24%, the “% subjects reporting Day 10 FeNO value <25 ppb” value ([1]; 4.0 mg BID (n = 6)) was 67% and the “Mean placebo-corrected % FeNO reduction from day 1 pre-dose in ICS naïve mild asthmatics” value ([1]; 4.0 mg BID (n = 6), Day 10 + 3 hrs) was −29.1%. For the same compound, the “Mean placebo-corrected % FeNO reduction from day 1 pre-dose in ICS naïve mild asthmatics” value ([1]; 4.0 mg BID (n = 6), Day 10 + 6 hrs) was −30.6%, the “Mean placebo-corrected FeNO reduction” value ([1]; 4.0 mg BID, 1 capsule per dose) was −26% and the “Mean placebo-corrected % FeNO reduction from Day 1 pre-dose” value ([1]; 4.0 mg BID, Day 10 + 3 hours) was 29.1%. The “Mean placebo-corrected % FeNO reduction from Day 1 pre-dose” value ([1]; 4.0 mg BID, Day 10 + 6 hours) was 30.6%, the “% subjects reporting Day 10 FeNO value <25 ppb” value ([1]; 8.0 mg BID (n = 6)) was 50% and the “Mean placebo-corrected % FeNO reduction from day 1 pre-dose in ICS naïve mild asthmatics” value ([1]; 8.0 mg BID (n = 6), Day 10 + 3 hrs) was −29.1%. The “Mean placebo-corrected % FeNO reduction from day 1 pre-dose in ICS naïve mild asthmatics” value ([1]; 8.0 mg BID (n = 6), Day 10 + 6 hrs) was −25.9%, the “Pharmacological activity of dose regimens (FeNO)” value ([1]; dose regimens from 2 mg QD to 8 mg BID) was “pharmacologically active” and the “Inhibition of JAK1” value [2] was “potent inhibitor”. For the same compound, the “Severe/serious TEAE, n (%)” value ([3]; 0.2 mg (n = 6)) was 0, the “Subjects with TEAE n, (%)” value ([3]; 0.2 mg (n = 6)) was 0 and the “TEAE leading to discontinuation” value ([3]; 0.2 mg (n = 6)) was 0. The “Severe/serious TEAE, n (%)” value ([3]; 0.6 mg (n = 7)) was 0, the “Subjects with TEAE n, (%)” value ([3]; 0.6 mg (n = 7)) was 2 (29%) and the “TEAE leading to discontinuation” value ([3]; 0.6 mg (n = 7)) was 1. For the same compound, the “Severe/serious TEAE, n (%)” value ([3]; 2.0 mg (n = 6)) was 0, the “Subjects with TEAE n, (%)” value ([3]; 2.0 mg (n = 6)) was 2 (33%) and the “TEAE leading to discontinuation” value ([3]; 2.0 mg (n = 6)) was 0. For the same compound, the “Severe/serious TEAE, n (%)” value ([3]; 4.0 mg (n = 6)) was 0, the “Subjects with TEAE n, (%)” value ([3]; 4.0 mg (n = 6)) was 0 and the “TEAE leading to discontinuation” value ([3]; 4.0 mg (n = 6)) was 0. For the same compound, the “Severe/serious TEAE, n (%)” value ([3]; 6.0 mg (n = 6)) was 0, the “Subjects with TEAE n, (%)” value ([3]; 6.0 mg (n = 6)) was 0 and the “TEAE leading to discontinuation” value ([3]; 6.0 mg (n = 6)) was 0. The “Severe/serious TEAE, n (%)” value ([3]; 12.0 mg (n = 6)) was 0, the “Subjects with TEAE n, (%)” value ([3]; 12.0 mg (n = 6)) was 0 and the “TEAE leading to discontinuation” value ([3]; 12.0 mg (n = 6)) was 0. The “Changes in cardiovascular endpoints (ECG and vital signs)” value ([3]; phase 1 clinical trial) was “No treatment-related clinically relevant changes”, the “Severe or serious adverse events” value ([3]; phase 1 clinical trial) was “No severe or serious adverse events were observed” and the “Changes in hematology, biochemistry or urinalysis parameters including those influenced by JAK inhibition” value ([3]; phase 1 clinical trial, per investigator) was “No clinically relevant changes”. The “Inhibition of JAK2” value [4] was “potent inhibitor”, the “AUC0-24 hours Max” value ([5]; Day 10) was 689,494 pg · h/ml and the “AUC0-24 hours Min” value ([5]; Day 10) was 123,642 pg · h/ml. The “AUC0-last non-zero Max” value ([5]; Day 10) was 886,864 pg · h/ml, the “AUC0-last non-zero Min” value ([5]; Day 10) was 133,118 pg · h/ml and the “AUC0-∞ Max” value ([5]; Day 10) was 887,512 pg · h/ml. The “AUC0-∞ Min” value ([5]; Day 10) was 134,831 pg · h/ml, the “AUCover dosing interval Max” value ([5]; Day 10) was 501,523 pg · h/ml and the “AUCover dosing interval Min” value ([5]; Day 10) was 105,203 pg · h/ml. The “Cmax Max” value ([5]; Day 10) was 63,800 pg/ml, the “Cmax Min” value ([5]; Day 10) was 15,900 pg/ml and the “Ctrough Geometric mean” value ([5]; Day 10) was 9,806 pg/ml. For the same compound, the “Ctrough Max” value ([5]; Day 10) was 23,000 pg/ml, the “Ctrough Mean” value ([5]; Day 10) was 11,153 pg/ml and the “Ctrough Min” value ([5]; Day 10) was 2,490 pg/ml. For the same compound, the AUC(0-t) ([5]; Day 10, read-out: AUC0-24 hours Geometric mean) was 334 ng·h/mL, the AUC(0-t) ([5]; Day 10, read-out: AUC0-24 hours Mean) was 365 ng·h/mL and the AUC(0-t) ([5]; Day 10, read-out: AUC0-last non-zero Geometric mean) was 393 ng·h/mL. It also gave an AUC(0-t) ([5]; Day 10, read-out: AUC0-last non-zero Mean) of 438 ng·h/mL, an AUC(0-inf) ([5]; Day 10, read-out: AUC0-∞ Geometric mean) of 395 ng·h/mL and an AUC(0-inf) ([5]; Day 10, read-out: AUC0-∞ Mean) of 439 ng·h/mL. It also gave an AUC ([5]; Day 10, read-out: AUCover dosing interval Geometric mean) of 257 ng·h/mL, an AUC ([5]; Day 10, read-out: AUCover dosing interval Mean) of 278 ng·h/mL and a Cmax ([5]; Day 10, read-out: Cmax Geometric mean) of 35 ng/mL. It also gave a Cmax ([5]; Day 10, read-out: Cmax Mean) of 37.5 ng/mL.
